Experiments:
Settings in all cases: 1 mM ATP; inhibitor
JAK3(JH1) = JAK3(JH1) (Homo sapiens, UniProt P52333)
Procedure: (§1) Kinase selectivity panel Kinome profiling was conducted by AssayQuant Technologies (Marlboro, MA) using Sox chromophore technology and Sox-based peptide substrates developed for human kinases in a 384-well format. Compounds were tested at 1 µM in the presence of 1 mM ATP.

PINK1 = PINK1 (Homo sapiens, UniProt Q9BXM7)
Procedure: as §1

GRK2 = GRK2 (Homo sapiens, UniProt P25098)
Procedure: as §1

CHEK2/CHK2 = CHEK2/CHK2 (Homo sapiens, UniProt O96017)
Procedure: as §1

FGFR4 = FGFR4 (Homo sapiens, UniProt P22455)
Procedure: as §1

AURKA/AURA = AURKA/AURA (Homo sapiens, UniProt O14965)
Procedure: as §1

EPHB1 = EPHB1 (Homo sapiens, UniProt P54762)
Procedure: as §1

MAPK14/P38A = MAPK14/P38A (Homo sapiens, UniProt Q16539)
Procedure: as §1

MAP3K12 = MAP3K12 (Homo sapiens, UniProt Q12852)
Procedure: as §1

PAK2 = PAK2 (Homo sapiens, UniProt Q13177)
Procedure: as §1

FLT1 = FLT1 (Homo sapiens, UniProt P17948)
Procedure: as §1

CTK = biological target: T1, CTK (Homo sapiens, UniProt P42679)
T1 construct: gene MATK
Procedure: as §1

PRKG2 = PRKG2 (Homo sapiens, UniProt Q13237)
Procedure: as §1

IRAK4 = IRAK4 (Homo sapiens, UniProt Q9NWZ3)
Procedure: as §1

MAPK12/P38G = MAPK12/P38G (Homo sapiens, UniProt P53778)
Procedure: as §1

STK26/MST4 = STK26/MST4 (Homo sapiens, UniProt Q9P289)
Procedure: as §1

EPHB2 = EPHB2 (Homo sapiens, UniProt P29323)
Procedure: as §1

MAP3K5 = MAP3K5 (Homo sapiens, UniProt Q99683)
Procedure: as §1

AURKB/AURB = AURKB/AURB (Homo sapiens, UniProt Q96GD4)
Procedure: as §1

CDK2/E1 = CDK2/E1 (Homo sapiens, UniProt P24941)
Procedure: as §1

DAPK3 = DAPK3 (Homo sapiens, UniProt O43293)
Procedure: as §1

TNK1 = TNK1 (Homo sapiens, UniProt Q13470)
Procedure: as §1

PRKAA2/AMPK221 = PRKAA2/AMPK221 (Homo sapiens, UniProt P54646)
Procedure: as §1

GRK3 = GRK3 (Homo sapiens, UniProt P35626)
Procedure: as §1

PAK6 = PAK6 (Homo sapiens, UniProt Q9NQU5)
Procedure: as §1

MARK1 = MARK1 (Homo sapiens, UniProt Q9P0L2)
Procedure: as §1

LIMK2 = LIMK2 (Homo sapiens, UniProt P53671)
Procedure: as §1

HASPIN = HASPIN (Homo sapiens, UniProt Q8TF76)
Procedure: as §1

BRSK1 = BRSK1 (Homo sapiens, UniProt Q8TDC3)
Procedure: as §1

MAP2K2/MEK2 = MAP2K2/MEK2 (Homo sapiens, UniProt P36507)
Procedure: as §1

TYK2(JH1JH2) = TYK2(JH1JH2) (Homo sapiens, UniProt P29597)
Procedure: as §1

ROCK1 = ROCK1 (Homo sapiens, UniProt Q13464)
Procedure: as §1

MAP3K9 = MAP3K9 (Homo sapiens, UniProt P80192)
Procedure: as §1

CDK18 = CDK18 (Homo sapiens, UniProt Q07002)
Procedure: as §1

DYRK4 = DYRK4 (Homo sapiens, UniProt Q9NR20)
Procedure: as §1

MYO3B = MYO3B (Homo sapiens, UniProt Q8WXR4)
Procedure: as §1

ICK = biological target: T2, ICK (Homo sapiens, UniProt Q9UPZ9)
T2 construct: gene CILK1
Procedure: as §1

EEF2K = EEF2K (Homo sapiens, UniProt O00418)
Procedure: as §1

SIK1 = SIK1 (Homo sapiens, UniProt P57059)
Procedure: as §1

Sequence of MYO3B (Q8WXR4 whole entry): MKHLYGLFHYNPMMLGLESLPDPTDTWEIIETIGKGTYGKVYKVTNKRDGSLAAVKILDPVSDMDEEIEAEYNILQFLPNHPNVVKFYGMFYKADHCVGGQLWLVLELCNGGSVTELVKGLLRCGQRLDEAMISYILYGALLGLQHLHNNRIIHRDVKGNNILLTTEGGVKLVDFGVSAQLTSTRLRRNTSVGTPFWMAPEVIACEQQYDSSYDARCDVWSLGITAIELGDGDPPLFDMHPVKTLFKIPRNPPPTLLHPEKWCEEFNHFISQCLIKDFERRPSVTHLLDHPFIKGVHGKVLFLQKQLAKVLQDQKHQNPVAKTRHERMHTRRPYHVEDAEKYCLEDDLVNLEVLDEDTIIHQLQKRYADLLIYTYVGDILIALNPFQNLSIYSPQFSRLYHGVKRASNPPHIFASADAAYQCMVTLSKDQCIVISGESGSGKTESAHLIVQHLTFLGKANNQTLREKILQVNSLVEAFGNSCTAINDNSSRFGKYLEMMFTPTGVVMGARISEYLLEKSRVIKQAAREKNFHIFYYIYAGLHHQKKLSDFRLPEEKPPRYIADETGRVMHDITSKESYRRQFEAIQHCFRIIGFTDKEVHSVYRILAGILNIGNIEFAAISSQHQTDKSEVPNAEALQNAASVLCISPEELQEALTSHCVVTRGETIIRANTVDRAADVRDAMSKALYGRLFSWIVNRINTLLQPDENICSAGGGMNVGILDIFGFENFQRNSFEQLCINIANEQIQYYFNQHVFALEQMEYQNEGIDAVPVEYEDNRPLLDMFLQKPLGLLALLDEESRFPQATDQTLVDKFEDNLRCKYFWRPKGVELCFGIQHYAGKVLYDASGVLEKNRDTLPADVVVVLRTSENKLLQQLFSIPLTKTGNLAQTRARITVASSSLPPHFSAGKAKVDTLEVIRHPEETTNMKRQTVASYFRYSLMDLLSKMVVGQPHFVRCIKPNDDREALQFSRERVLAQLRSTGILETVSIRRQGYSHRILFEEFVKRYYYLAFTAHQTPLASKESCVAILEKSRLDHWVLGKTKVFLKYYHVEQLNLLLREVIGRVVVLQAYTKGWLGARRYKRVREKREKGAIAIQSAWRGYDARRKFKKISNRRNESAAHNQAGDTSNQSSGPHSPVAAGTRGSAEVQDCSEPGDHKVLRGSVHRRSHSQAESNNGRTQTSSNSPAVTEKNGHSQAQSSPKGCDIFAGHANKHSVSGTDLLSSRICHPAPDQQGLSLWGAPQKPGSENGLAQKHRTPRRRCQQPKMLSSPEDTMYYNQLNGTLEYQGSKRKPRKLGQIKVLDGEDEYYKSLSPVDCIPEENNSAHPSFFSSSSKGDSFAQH
Sequence of EPHB1 (P54762 whole entry): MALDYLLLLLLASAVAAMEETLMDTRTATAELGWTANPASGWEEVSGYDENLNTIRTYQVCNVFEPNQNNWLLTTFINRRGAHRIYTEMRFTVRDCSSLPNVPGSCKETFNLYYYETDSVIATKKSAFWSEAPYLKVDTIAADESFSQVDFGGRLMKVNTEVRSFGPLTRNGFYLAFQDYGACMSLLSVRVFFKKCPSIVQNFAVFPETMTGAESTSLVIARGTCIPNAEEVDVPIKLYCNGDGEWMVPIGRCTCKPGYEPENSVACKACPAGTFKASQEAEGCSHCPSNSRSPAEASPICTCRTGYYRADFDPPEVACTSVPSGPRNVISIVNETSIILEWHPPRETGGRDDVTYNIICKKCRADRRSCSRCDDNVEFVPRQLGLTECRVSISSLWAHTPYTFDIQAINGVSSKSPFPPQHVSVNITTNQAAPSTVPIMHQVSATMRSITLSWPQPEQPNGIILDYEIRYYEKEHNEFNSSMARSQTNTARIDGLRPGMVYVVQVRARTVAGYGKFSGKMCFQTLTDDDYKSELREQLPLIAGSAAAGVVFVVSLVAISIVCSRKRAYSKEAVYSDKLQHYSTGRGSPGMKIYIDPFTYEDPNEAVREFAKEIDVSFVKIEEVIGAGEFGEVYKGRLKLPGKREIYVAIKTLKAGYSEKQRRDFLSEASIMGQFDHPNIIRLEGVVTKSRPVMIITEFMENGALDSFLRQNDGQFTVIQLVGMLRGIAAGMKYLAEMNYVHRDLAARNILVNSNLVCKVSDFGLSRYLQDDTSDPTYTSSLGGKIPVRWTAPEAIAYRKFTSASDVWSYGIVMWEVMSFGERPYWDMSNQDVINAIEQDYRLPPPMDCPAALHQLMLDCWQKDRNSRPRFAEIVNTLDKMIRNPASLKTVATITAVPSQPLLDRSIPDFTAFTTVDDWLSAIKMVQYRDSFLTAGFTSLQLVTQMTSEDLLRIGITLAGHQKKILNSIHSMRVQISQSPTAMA
Sequence of MAPK14/P38A (Q16539 whole entry): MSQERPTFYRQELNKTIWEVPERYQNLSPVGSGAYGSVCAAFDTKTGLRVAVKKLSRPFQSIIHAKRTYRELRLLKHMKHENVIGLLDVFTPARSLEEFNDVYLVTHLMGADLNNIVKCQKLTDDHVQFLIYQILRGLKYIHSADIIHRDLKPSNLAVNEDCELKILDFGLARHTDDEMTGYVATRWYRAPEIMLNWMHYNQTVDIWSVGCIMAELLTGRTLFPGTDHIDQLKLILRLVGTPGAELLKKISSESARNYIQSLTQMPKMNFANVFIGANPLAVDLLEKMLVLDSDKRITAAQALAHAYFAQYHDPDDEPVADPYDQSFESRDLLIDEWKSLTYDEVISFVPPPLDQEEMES
Sequence of TYK2(JH1JH2) (P29597 whole entry): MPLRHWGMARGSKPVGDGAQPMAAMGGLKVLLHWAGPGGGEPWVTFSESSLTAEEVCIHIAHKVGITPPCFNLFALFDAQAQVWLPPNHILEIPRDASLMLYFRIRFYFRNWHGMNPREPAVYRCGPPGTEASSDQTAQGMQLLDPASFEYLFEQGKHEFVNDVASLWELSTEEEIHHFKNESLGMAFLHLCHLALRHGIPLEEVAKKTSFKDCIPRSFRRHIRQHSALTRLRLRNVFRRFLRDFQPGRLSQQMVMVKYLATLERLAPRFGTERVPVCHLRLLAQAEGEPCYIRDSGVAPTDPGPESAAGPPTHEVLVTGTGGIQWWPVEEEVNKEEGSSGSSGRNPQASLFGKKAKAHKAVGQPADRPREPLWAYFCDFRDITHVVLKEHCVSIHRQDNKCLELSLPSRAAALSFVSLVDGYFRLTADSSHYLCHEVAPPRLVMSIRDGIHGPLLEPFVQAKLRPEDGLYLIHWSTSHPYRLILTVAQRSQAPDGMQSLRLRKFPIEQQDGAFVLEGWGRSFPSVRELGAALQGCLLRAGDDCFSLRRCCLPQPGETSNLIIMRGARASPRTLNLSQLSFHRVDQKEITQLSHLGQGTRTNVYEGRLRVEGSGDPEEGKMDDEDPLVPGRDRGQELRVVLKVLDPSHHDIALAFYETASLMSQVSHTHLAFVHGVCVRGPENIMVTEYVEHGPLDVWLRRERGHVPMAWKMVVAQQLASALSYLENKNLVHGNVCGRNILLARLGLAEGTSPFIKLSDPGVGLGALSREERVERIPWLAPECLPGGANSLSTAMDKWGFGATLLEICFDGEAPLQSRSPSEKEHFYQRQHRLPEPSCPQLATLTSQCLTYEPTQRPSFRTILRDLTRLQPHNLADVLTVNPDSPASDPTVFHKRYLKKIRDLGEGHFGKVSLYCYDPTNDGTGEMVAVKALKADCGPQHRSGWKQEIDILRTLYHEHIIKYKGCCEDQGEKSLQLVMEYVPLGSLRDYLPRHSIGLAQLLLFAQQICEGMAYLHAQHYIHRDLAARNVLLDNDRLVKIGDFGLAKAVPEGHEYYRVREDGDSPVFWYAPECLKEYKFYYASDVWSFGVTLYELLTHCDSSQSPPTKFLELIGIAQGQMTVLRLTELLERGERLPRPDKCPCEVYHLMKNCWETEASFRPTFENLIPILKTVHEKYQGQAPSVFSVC
Sequence of SIK1 (P57059 whole entry): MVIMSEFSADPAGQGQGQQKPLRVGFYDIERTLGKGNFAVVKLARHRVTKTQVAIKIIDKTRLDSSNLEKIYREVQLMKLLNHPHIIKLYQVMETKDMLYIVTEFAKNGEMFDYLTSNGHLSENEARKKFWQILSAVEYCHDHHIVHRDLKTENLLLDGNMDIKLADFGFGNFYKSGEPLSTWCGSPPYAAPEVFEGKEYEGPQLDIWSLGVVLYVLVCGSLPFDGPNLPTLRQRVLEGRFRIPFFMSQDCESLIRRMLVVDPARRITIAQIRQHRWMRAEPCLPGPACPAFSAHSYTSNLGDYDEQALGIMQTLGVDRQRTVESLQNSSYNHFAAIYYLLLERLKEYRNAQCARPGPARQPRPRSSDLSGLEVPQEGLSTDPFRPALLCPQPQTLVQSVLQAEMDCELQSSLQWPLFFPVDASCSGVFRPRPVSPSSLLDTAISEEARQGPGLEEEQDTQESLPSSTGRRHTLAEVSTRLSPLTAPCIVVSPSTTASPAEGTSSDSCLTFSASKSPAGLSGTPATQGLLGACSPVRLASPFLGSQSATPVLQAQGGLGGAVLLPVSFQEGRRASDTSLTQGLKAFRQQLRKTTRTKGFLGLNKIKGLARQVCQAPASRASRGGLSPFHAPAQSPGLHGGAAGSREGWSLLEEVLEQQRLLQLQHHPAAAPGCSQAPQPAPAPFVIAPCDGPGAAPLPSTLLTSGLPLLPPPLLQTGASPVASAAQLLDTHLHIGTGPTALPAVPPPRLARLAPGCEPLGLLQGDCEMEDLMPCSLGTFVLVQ
Sequence of AURKA/AURA (O14965 whole entry): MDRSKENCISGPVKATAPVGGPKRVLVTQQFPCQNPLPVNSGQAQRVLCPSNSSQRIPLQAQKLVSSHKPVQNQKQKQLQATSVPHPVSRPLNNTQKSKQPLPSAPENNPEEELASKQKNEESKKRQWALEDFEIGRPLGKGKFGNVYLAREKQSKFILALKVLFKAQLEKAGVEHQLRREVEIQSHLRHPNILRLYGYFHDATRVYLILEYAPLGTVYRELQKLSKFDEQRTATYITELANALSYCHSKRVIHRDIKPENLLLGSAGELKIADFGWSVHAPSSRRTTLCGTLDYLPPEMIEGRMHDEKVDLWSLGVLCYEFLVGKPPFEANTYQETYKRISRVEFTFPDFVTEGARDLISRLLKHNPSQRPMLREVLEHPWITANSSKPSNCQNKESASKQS

C=CC(=O)N1CCC[C@@H](n2nc(-c3ccc(Oc4ccccc4)cc3)c3c(N)ncnc32)C1 [Ibrutinib]
1 µM GBD00276 (ibrutinib), % inhibition (JAK3(JH1)): 10.34% | 1 µM GBD00276 (ibrutinib), % inhibition (PINK1): -6.021% | 1 µM GBD00276 (ibrutinib), % inhibition (GRK2): 3.639% | 1 µM GBD00276 (ibrutinib), % inhibition (CHEK2/CHK2): -10.68% | 1 µM GBD00276 (ibrutinib), % inhibition (FGFR4): 19.57% | 1 µM GBD00276 (ibrutinib), % inhibition (AURKA/AURA): 11.52% | 1 µM GBD00276 (ibrutinib), % inhibition (EPHB1): -0.8801% | 1 µM GBD00276 (ibrutinib), % inhibition (MAPK14/P38A): 4.135% | 1 µM GBD00276 (ibrutinib), % inhibition (MAP3K12): -16.4% | 1 µM GBD00276 (ibrutinib), % inhibition (PAK2): 28.3% | 1 µM GBD00276 (ibrutinib), % inhibition (FLT1): 31.87% | 1 µM GBD00276 (ibrutinib), % inhibition (CTK): -75.13% | 1 µM GBD00276 (ibrutinib), % inhibition (PRKG2): 26.79% | 1 µM GBD00276 (ibrutinib), % inhibition (IRAK4): 1.168% | 1 µM GBD00276 (ibrutinib), % inhibition (MAPK12/P38G): 1.971% | 1 µM GBD00276 (ibrutinib), % inhibition (STK26/MST4): -9.161% | 1 µM GBD00276 (ibrutinib), % inhibition (EPHB2): 8.665% | 1 µM GBD00276 (ibrutinib), % inhibition (MAP3K5): -3.817% | 1 µM GBD00276 (ibrutinib), % inhibition (AURKB/AURB): 7.598% | 1 µM GBD00276 (ibrutinib), % inhibition (CDK2/E1): 1.085% | 1 µM GBD00276 (ibrutinib), % inhibition (DAPK3): -3.598% | 1 µM GBD00276 (ibrutinib), % inhibition (TNK1): -7.554% | 1 µM GBD00276 (ibrutinib), % inhibition (PRKAA2/AMPK221): 4.802% | 1 µM GBD00276 (ibrutinib), % inhibition (GRK3): -19.22% | 1 µM GBD00276 (ibrutinib), % inhibition (PAK6): 14.55% | 1 µM GBD00276 (ibrutinib), % inhibition (MARK1): -2.409% | 1 µM GBD00276 (ibrutinib), % inhibition (LIMK2): 11.59% | 1 µM GBD00276 (ibrutinib), % inhibition (HASPIN): 7.214% | 1 µM GBD00276 (ibrutinib), % inhibition (BRSK1): 2.387% | 1 µM GBD00276 (ibrutinib), % inhibition (MAP2K2/MEK2): -23.38% | 1 µM GBD00276 (ibrutinib), % inhibition (TYK2(JH1JH2)): -13.3% | 1 µM GBD00276 (ibrutinib), % inhibition (ROCK1): 3.894% | 1 µM GBD00276 (ibrutinib), % inhibition (MAP3K9): -1.576% | 1 µM GBD00276 (ibrutinib), % inhibition (CDK18): 6.584% | 1 µM GBD00276 (ibrutinib), % inhibition (DYRK4): 6.524% | 1 µM GBD00276 (ibrutinib), % inhibition (MYO3B): -1.464% | 1 µM GBD00276 (ibrutinib), % inhibition (ICK): -2.761% | 1 µM GBD00276 (ibrutinib), % inhibition (EEF2K): 6.273% | 1 µM GBD00276 (ibrutinib), % inhibition (SIK1): 2.135%

From publication PMC10337138 (Acta Neuropathologica Communications, 2023)
